Holding throughout (test): fluorogenic substrate
Assay type in all cases: biochemical

Assay [1] has as its target T1, 20S proteasome β1 subunit (PGPH activity) (Homo sapiens, UniProt P28072).
T1 sequence (P28072 35-239): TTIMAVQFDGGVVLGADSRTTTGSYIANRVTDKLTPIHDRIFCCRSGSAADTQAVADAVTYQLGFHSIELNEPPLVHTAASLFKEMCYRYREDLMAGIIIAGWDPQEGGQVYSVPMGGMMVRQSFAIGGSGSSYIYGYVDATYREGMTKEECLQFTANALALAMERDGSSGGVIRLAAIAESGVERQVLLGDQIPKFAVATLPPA

Assay [2] addresses T2, 20S proteasome β5 subunit (chymotrypsin-like activity) (Homo sapiens, UniProt P28074).
T2 sequence (P28074 60-263): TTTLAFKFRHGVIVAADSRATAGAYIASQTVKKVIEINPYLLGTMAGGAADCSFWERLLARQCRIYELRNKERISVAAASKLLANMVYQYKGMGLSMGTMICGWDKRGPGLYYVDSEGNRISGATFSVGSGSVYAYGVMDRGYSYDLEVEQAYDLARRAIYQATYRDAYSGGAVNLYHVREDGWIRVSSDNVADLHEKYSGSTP

Assay [3] concerns the target T1, 20S proteasome β1 subunit (PGPH activity). This is another data set of the same source.

The source of these data is PMC3763447 (Cell Death & Disease, 2013).

The structures appear in SMILES notation. Peptide text beside a SMILES is read from it. * marks the point of attachment. Cbz = O=C(OCc1ccccc1)*

As to `CC(C)C[C@@H](C=O)NC(=O)[C@H](CC(C)C)NC(=O)[C@H](CC(C)C)NC(=O)OCc1ccccc1` [MG132] (Cbz-Leu-Leu-Leu-aldehyde), in assay [1], the “fluorogenic substrate (Bz-LLE-AMC) assay with purified 20S proteasome” value is “MG132, a known proteasome inhibitor for a positive control, showed more potent inhibition on the proteasome ChT-L and PGPH activities”.

Regarding `COc1ccc(O)c2c1Oc1cccc(c1)CCc1ccc(O)c(c1)Oc1ccc(cc1)CC2` [Mar, marchantin M], the IC50 (in general, the concentration needed to halve the response being measured) in assay [2] was 6.99 µM; in assay [3], 5.33 µM.
